According to patent US20260167656A1, “PHOSPHORAMIDATE COMPOUNDS AND USES THEREOF” (ALLORION THERAPEUTICS INC, priority 2022, published 2026):

Experiments:
[1] = tested on: non-small cell lung cancer cell line H460; experiment: H460 proliferation assay in the presence of 3 uM ASP9521 (AKR1C3 specific inhibitor); format: cell-based, human; conditions: H460 cells, CellTiter-Glo, 72 hours, in the presence of 3 uM ASP9521 added 4 hours prior to compounds; read-out: CTG H460: Avg IC50 (nM) [Assay Condition: ASP9521]
Method in brief: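 AKR1C3 blocked with 3 uM ASP9521 given 4 h ahead of test compounds. H460 cells, plated 24 h earlier, were then treated for 72 h at 37 °C in 5% CO2. CellTiter-Glo luminescence gave viability.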

[2] = tested on: non-small cell lung cancer cell line H460; experiment: In vitro human cancer cell line cytotoxicity (proliferation) assay in H460, CellTiter-Glo, 72 hours; format: cell-based; conditions: H460 cells, DMSO condition (no AKR1C3 inhibitor), read-out: CTG H460: Avg IC50 (nM) [Assay Condition: DMSO]
Method in brief: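 IC50s in nM come from CellTiter-Glo viability read after 72 h of compound exposure. Compounds went in from 10 mM DMSO stocks onto H460 cells, which had been plated at 3×10^3 per well and grown 24 h beforehand at 37 °C, 5% CO2.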

Structure (SMILES)	IC50 [1] [nM]	IC50 [2] [nM]	IC50 ([2]; Homo sapiens, NCI-H460, 72 h) [nM]
CC(C)Oc1cccc(Oc2c([N+](=O)[O-])ccc3c2CC[C@H]3OP(=O)(N2CC2)N2CC2)c1 [Example 453]	819	< 10	–
Cn1cc(Oc2cccc(Oc3c([N+](=O)[O-])ccc4c3CC[C@H]4OP(=O)(N3CC3)N3CC3)c2)cn1 [Example 455]	1660	< 10	–
O=[N+]([O-])c1ccc2c(c1Oc1cccc(S(=O)(=O)C3CC3)c1)CC[C@H]2OP(=O)(N1CC1)N1CC1 [Example 456]	940	< 10	–
O=[N+]([O-])c1ccc2c(c1Oc1cccc(OC(F)F)c1)CC[C@@H]2OP(=O)(N1CC1)N1CC1 [Example 457]	768	< 10	–
O=[N+]([O-])c1ccc2c(c1Oc1cccc(OC(F)F)c1)CC[C@H]2OP(=O)(N1CC1)N1CC1 [Example 458]	506	< 10	–
COc1cncc(Oc2c([N+](=O)[O-])ccc3c2CC[C@H]3OP(=O)(N2CC2)N2CC2)c1 [Example 462]	917	< 10	–
O=[N+]([O-])c1ccc2c(c1Oc1cccc(OC3CCC3)c1)CC[C@@H]2OP(=O)(N1CC1)N1CC1 [Example 463]	478	< 10	–
O=[N+]([O-])c1ccc2c(c1Oc1cccc(OC3CCC3)c1)CC[C@H]2OP(=O)(N1CC1)N1CC1 [Example 464]	1390	< 10	–
CSc1ccc(Oc2c([N+](=O)[O-])ccc3c2CC[C@@H]3OP(=O)(N2CC2)N2CC2)cc1 [Example 466]	975	< 10	–
O=[N+]([O-])c1ccc2c(c1Oc1cccc(OC3CC3)c1)CC[C@H]2OP(=O)(N1CC1)N1CC1 [Example 467]	4160	< 10	–
O=[N+]([O-])c1ccc2c(c1Oc1cccc(OC3COC3)c1)CC[C@H]2OP(=O)(N1CC1)N1CC1 [Example 468]	660	< 10	–
O=[N+]([O-])c1ccc2c(c1Oc1cccc(OC3CCCC3)c1)CC[C@@H]2OP(=O)(N1CC1)N1CC1 [Example 469]	1130	< 10	–
O=[N+]([O-])c1ccc2c(c1Oc1cccc(OC3CCCC3)c1)CC[C@H]2OP(=O)(N1CC1)N1CC1 [Example 470]	1150	< 10	–
O=[N+]([O-])c1ccc2c(c1Oc1cncc(OC3CC3)c1)CC[C@@H]2OP(=O)(N1CC1)N1CC1 [Example 471]	3060	< 10	–
CSc1cccc(Oc2c([N+](=O)[O-])ccc3c2CC[C@H]3OP(=O)(N2CC2)N2CC2)c1 [Example 472]	583	< 10	–
O=[N+]([O-])c1ccc2c(c1Oc1cccc(OCC(F)(F)F)c1)CC[C@@H]2OP(=O)(N1CC1)N1CC1 [Example 474]	918	< 10	–
O=[N+]([O-])c1ccc2c(c1Oc1ccc(F)c(OC3CCCC3)c1)CCC2OP(=O)(N1CC1)N1CC1 (stereo not drawn) [Example 476]	1090	< 10	–
O=[N+]([O-])c1ccc2c(c1Oc1ccc(F)c(OC(F)F)c1)CCC2OP(=O)(N1CC1)N1CC1 (stereo not drawn) [Example 477]	627	< 10	–
O=[N+]([O-])c1ccc2c(c1Oc1ccc(F)c(OC3CCCC3)c1)CCC2OP(=O)(N1CC1)N1CC1 (stereo not drawn) [Example 478]	1690	< 10	–
O=[N+]([O-])c1ccc2c(c1Oc1ccc(F)c(OC3CCCC3)c1)CCC2OP(=O)(N1CC1)N1CC1 (stereo not drawn) [Example 479]	1630	< 10	–
O=[N+]([O-])c1ccc2c(c1Oc1cccc(OCC3CC3)c1)CCC2OP(=O)(N1CC1)N1CC1 (stereo not drawn) [Example 480]	1760	< 10	–
O=[N+]([O-])c1ccc2c(c1Oc1cccc(OCC3CC3)c1)CC[C@@H]2OP(=O)(N1CC1)N1CC1 [Example 481]	1120	–	< 10
O=[N+]([O-])c1ccc2c(c1Oc1cccc(OCC3CC3)c1)CCC2OP(=O)(N1CC1)N1CC1 (stereo not drawn) [Example 482]	1340	< 10	–
COc1ccc(Oc2c([N+](=O)[O-])ccc3c2CCC3OP(=O)(N2CC2)N2CC2)cc1OC1CC1 (stereo not drawn) [Example 483]	735	< 10	–
CC(C)COc1cccc(Oc2c([N+](=O)[O-])ccc3c2CCC3OP(=O)(N2CC2)N2CC2)c1 (stereo not drawn) [Example 484]	1990	< 10	–
CC(C)COc1cccc(Oc2c([N+](=O)[O-])ccc3c2CCC3OP(=O)(N2CC2)N2CC2)c1 (stereo not drawn) [Example 485]	1150	< 10	–
CC(C)Oc1cc(Oc2c([N+](=O)[O-])ccc3c2CCC3OP(=O)(N2CC2)N2CC2)ccc1F (stereo not drawn) [Example 486]	967	< 10	–
